What was measured:
AKR1C2 Phe46Tyr [1] = target: T1, AKR1C2 Phe46Tyr (Homo sapiens, UniProt P52895, F46Y); settings: relative to wildtype AKR1C2; cited from earlier work
T1 sequence (P52895 1-323 F46Y): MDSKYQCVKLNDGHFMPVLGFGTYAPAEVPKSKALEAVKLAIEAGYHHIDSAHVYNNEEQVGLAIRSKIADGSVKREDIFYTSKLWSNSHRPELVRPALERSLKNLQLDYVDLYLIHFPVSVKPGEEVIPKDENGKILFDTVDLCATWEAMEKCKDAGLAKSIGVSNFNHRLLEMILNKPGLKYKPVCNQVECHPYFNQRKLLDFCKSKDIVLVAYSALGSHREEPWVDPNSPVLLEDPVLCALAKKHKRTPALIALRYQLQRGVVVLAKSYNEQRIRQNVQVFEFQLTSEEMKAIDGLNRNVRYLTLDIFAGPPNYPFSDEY

AKR1C2 Phe46Tyr [2] = target: T1, AKR1C2 Phe46Tyr; settings: cited from earlier work
aromatase [3] = target: T2, aromatase (Homo sapiens, UniProt P11511); test: Inhibition of aromatase-mediated estrogen formation; type: biochemical; settings: unpublished observations
T2 sequence (P11511 1-503): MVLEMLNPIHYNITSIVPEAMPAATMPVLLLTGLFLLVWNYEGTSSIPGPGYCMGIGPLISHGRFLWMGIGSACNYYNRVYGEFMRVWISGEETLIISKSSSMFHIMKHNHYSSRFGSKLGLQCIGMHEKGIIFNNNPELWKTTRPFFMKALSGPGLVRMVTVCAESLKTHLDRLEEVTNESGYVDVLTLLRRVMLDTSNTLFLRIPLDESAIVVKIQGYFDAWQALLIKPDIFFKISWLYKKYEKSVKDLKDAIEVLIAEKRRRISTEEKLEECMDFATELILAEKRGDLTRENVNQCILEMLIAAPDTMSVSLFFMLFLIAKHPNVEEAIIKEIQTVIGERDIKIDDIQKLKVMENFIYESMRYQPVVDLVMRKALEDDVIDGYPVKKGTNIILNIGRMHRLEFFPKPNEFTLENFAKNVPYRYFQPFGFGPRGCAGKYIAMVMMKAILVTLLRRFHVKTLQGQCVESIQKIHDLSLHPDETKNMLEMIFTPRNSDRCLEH

[4] = cited from earlier work
aromatase [5] = target: T2, aromatase; settings: aromatase-mediated estrogen formation; cited from earlier work
not read = substrate: C=C1C[C@@H]2[C@H](CC[C@]3(C)C(=O)CC[C@@H]23)[C@@]2(C)C=CC(=O)C=C12; test: not read; settings: other: AKR1C2 Phe46Tyr (rs2854482); 17β-DHE formation; 37.0 °C

OC1Cc2cccc3cccc1c23 (stereo not shown) [1-acenaphthenol]
decrease in overall AKR1C2 activity by Phe46Tyr substitution (AKR1C2 Phe46Tyr [1]): approximately 30%

C[C@]12CCC(=O)C[C@@H]1CC[C@@H]1[C@@H]2CC[C@]2(C)[C@@H](O)CC[C@@H]12 [5α-DHT]
decrease in VMAX for reduction relative to wildtype enzyme (AKR1C2 Phe46Tyr [2]): 40%

C=C1C[C@H]2[C@@H]3CC[C@@H](O)[C@@]3(C)CC[C@@H]2[C@@]2(C)C=CC(=O)C=C12 [17α-DHE, 17α-dihydroexemestane]
aromatase-inhibiting properties (aromatase [3]): no appreciable aromatase-inhibiting properties

C=C1C[C@H]2[C@@H]3CC[C@H](O)[C@@]3(C)CC[C@@H]2[C@@]2(C)C=CC(=O)C=C12 [17β-DHE, 17β-dihydroexemestane]
17β-DHE concentration relative to parent drug in plasma ([4]; healthy individuals taking EXE): 35–40%
variation of amount of 17β-DHE relative to EXE in human plasma ([4]; pool of three participants): five-fold
aromatase inhibition potency (aromatase [5]): potency similar to its parent compound EXE

B1: AKR1C2 Phe46Tyr (Homo sapiens; F46Y) (protein)
chain: T1 sequence (P52895 1-323 F46Y)
Km (not read): 13.5 ± 2.8 µM

— publication PMC5088049 (Pharmacogenetics and genomics, 2016)
